Paper PMC5218480 (PLoS ONE, 2017)

System: MV-4-11 cells
Assay: Gene expression microarray analysis (Affymetrix PrimeView) and GSEA
Assay type: cell-based, human
Parameters: RFU PODN (11730768_x_at) / Fold change /veh PODN (11730768_x_at) / RFU LINC00158 (11744669_a_at) / Fold change /veh LINC00158 (11744669_a_at) / RFU DUSP10 (11751237_a_at) / Fold change /veh DUSP10 (11751237_a_at) / RFU ID3 (11757404_x_at) / Fold change /veh ID3 (11757404_x_at) / RFU PLEKHG5 (11737974_s_at) / Fold change /veh PLEKHG5 (11737974_s_at) / RFU LRRC4B (11730491_at) / Fold change /veh LRRC4B (11730491_at) / RFU GIMAP4 (11747438_a_at) / Fold change /veh GIMAP4 (11747438_a_at) / RFU KRT8 (11758183_x_at) / Fold change /veh KRT8 (11758183_x_at) / RFU CNN1 (11734310_a_at) / Fold change /veh CNN1 (11734310_a_at) / RFU VPS37D (11726825_at) / Fold change /veh VPS37D (11726825_at) / RFU C10orf10 (11716522_x_at) / Fold change /veh C10orf10 (11716522_x_at) / RFU KIR2DL2 /// KIR2DL4 /// KIR2DL5A /// KIR2DL5B /// KIR2DS1 /// KIR2DS2 /// KIR2DS3 /// KIR2DS4 /// KIR3DL3 /// KIR3DL3 /// KIR3DS1 (11738374_at) / Fold change /veh KIR2DL2 /// KIR2DL4 /// KIR2DL5A /// KIR2DL5B /// KIR2DS1 /// KIR2DS2 /// KIR2DS3 /// KIR2DS4 /// KIR3DL3 /// KIR3DL3 /// KIR3DS1 (11738374_at) / RFU C1QL1 (11718748_at) / Fold change /veh C1QL1 (11718748_at) / RFU TMPRSS4 (11747572_a_at) / Fold change /veh TMPRSS4 (11747572_a_at) / RFU HAMP (11756126_x_at) / Fold change /veh HAMP (11756126_x_at) / RFU RNFT2 (11725882_a_at) / Fold change /veh RNFT2 (11725882_a_at) / RFU NR4A2 (11747474_a_at) / Fold change /veh NR4A2 (11747474_a_at) / RFU ABCC12 (11746883_a_at) / Fold change /veh ABCC12 (11746883_a_at) / RFU TMEM136 (11760407_x_at) / Fold change /veh TMEM136 (11760407_x_at) / RFU CLDN22 /// WWC2 (11732394_at) / Fold change /veh CLDN22 /// WWC2 (11732394_at) / RFU HLA-DPB1 (11760878_x_at) / Fold change /veh HLA-DPB1 (11760878_x_at) / RFU SPINT1 (11716480_a_at) / Fold change /veh SPINT1 (11716480_a_at) / RFU GAP43 (11754022_s_at) / Fold change /veh GAP43 (11754022_s_at) / RFU A4GNT (11735810_at) / Fold change /veh A4GNT (11735810_at) / RFU PRB3 (11715151_x_at) / Fold change /veh PRB3 (11715151_x_at) / RFU TUBB4B (11761932_at) / Fold change /veh TUBB4B (11761932_at) / RFU CAPN14 (11732068_a_at) / Fold change /veh CAPN14 (11732068_a_at) / RFU TMCC2 (11721928_a_at) / Fold change /veh TMCC2 (11721928_a_at) / RFU IRGQ (11745062_a_at) / Fold change /veh IRGQ (11745062_a_at) / RFU FAM174B (11720279_a_at) / Fold change /veh FAM174B (11720279_a_at) / RFU TMPRSS4 (11748680_a_at) / Fold change /veh TMPRSS4 (11748680_a_at) / RFU FAM212B (11763350_a_at) / Fold change /veh FAM212B (11763350_a_at) / RFU PLEKHG5 (11743358_a_at) / Fold change /veh PLEKHG5 (11743358_a_at) / RFU ZSCAN30 (11745921_a_at) / Fold change /veh ZSCAN30 (11745921_a_at) / RFU CMKLR1 (11741424_a_at) / Fold change /veh CMKLR1 (11741424_a_at) / RFU LOC101060620 /// MAPK8IP1 (11723275_at) / Fold change /veh LOC101060620 /// MAPK8IP1 (11723275_at) / RFU SPTSSB (11747773_x_at) / Fold change /veh SPTSSB (11747773_x_at) / RFU PRSS12 (11739890_at) / Fold change /veh PRSS12 (11739890_at) / RFU BIN1 (11741810_x_at) / Fold change /veh BIN1 (11741810_x_at) / RFU WNT11 (11732464_a_at) / Fold change /veh WNT11 (11732464_a_at) / RFU C10orf10 (11716521_a_at) / Fold change /veh C10orf10 (11716521_a_at) / RFU C5orf56 (11738089_at) / Fold change /veh C5orf56 (11738089_at) / RFU CYB561 (11721691_x_at) / Fold change /veh CYB561 (11721691_x_at) / RFU ANKRD19P (11752326_a_at) / Fold change /veh ANKRD19P (11752326_a_at) / RFU OR2T12 /// OR2T33 /// OR2T8 (11738714_s_at) / Fold change /veh OR2T12 /// OR2T33 /// OR2T8 (11738714_s_at) / RFU VCAN (11748164_a_at) / Fold change /veh VCAN (11748164_a_at) / RFU JSRP1 (11732532_at) / Fold change /veh JSRP1 (11732532_at) / RFU KRTAP10-11 (11738290_x_at) / Fold change /veh KRTAP10-11 (11738290_x_at) / RFU MYO3A (11730013_a_at) / Fold change /veh MYO3A (11730013_a_at) / RFU EBF3 (11725865_a_at) / Fold change /veh EBF3 (11725865_a_at) / RFU CAMK2N1 (11719241_x_at) / Fold change /veh CAMK2N1 (11719241_x_at) / RFU C5orf56 (11738088_a_at) / Fold change /veh C5orf56 (11738088_a_at) / RFU OLFML3 (11715873_a_at) / Fold change /veh OLFML3 (11715873_a_at) / RFU LOC100653217 /// NTM (11731650_a_at) / Fold change /veh LOC100653217 /// NTM (11731650_a_at) / RFU MAPK11 (11762145_a_at) / Fold change /veh MAPK11 (11762145_a_at) / RFU FIZ1 (11724087_x_at) / Fold change /veh FIZ1 (11724087_x_at) / RFU OASL (11726364_x_at) / Fold change /veh OASL (11726364_x_at) / RFU SOX15 (11748057_x_at) / Fold change /veh SOX15 (11748057_x_at) / RFU CD79A (11719716_a_at) / Fold change /veh CD79A (11719716_a_at) / RFU HIST1H1D (11736915_at) / Fold change /veh HIST1H1D (11736915_at) / RFU CASKIN2 (11723855_a_at) / Fold change /veh CASKIN2 (11723855_a_at) / RFU LOC730098 (11760151_x_at) / Fold change /veh LOC730098 (11760151_x_at) / RFU OR4N2 (11742367_at) / Fold change /veh OR4N2 (11742367_at) / RFU PRRT2 (11749266_a_at) / Fold change /veh PRRT2 (11749266_a_at) / RFU SNX32 (11753110_a_at) / Fold change /veh SNX32 (11753110_a_at) / RFU CDHR5 (11726645_a_at) / Fold change /veh CDHR5 (11726645_a_at) / RFU RCAN1 (11760418_a_at) / Fold change /veh RCAN1 (11760418_a_at) / RFU FAM167A (11723789_a_at) / Fold change /veh FAM167A (11723789_a_at) / RFU FAM26E (11764081_at) / Fold change /veh FAM26E (11764081_at) / RFU ISYNA1 (11749810_s_at) / Fold change /veh ISYNA1 (11749810_s_at) / RFU ACY1 (11761880_at) / Fold change /veh ACY1 (11761880_at) / RFU 11764098_at / Fold change /veh 11764098_at / RFU SAMD14 (11745864_x_at) / Fold change /veh SAMD14 (11745864_x_at) / RFU NPB (11741838_a_at) / Fold change /veh NPB (11741838_a_at) / RFU TMPRSS6 (11731388_a_at) / Fold change /veh TMPRSS6 (11731388_a_at) / RFU KRTAP10-2 (11738614_at) / Fold change /veh KRTAP10-2 (11738614_at) / RFU ARHGAP8 /// PRR5-ARHGAP8 (11727945_x_at) / Fold change /veh ARHGAP8 /// PRR5-ARHGAP8 (11727945_x_at) / RFU KRTAP5-7 /// NADSYN1 (11734609_at) / Fold change /veh KRTAP5-7 /// NADSYN1 (11734609_at) / RFU RASL12 (11751679_a_at) / Fold change /veh RASL12 (11751679_a_at) / RFU CDKN2B (11736163_a_at) / Fold change /veh CDKN2B (11736163_a_at) / RFU PRF1 (11729649_at) / Fold change /veh PRF1 (11729649_at) / RFU, ZNF638 /// ZNF638-IT1 / Fold change vs veh, ZNF638 /// ZNF638-IT1 / RFU, PANK3 / Fold change vs veh, PANK3 / RFU, SH3YL1 / Fold change vs veh, SH3YL1 / RFU, ZEB2 / Fold change vs veh, ZEB2 / RFU, NRIP1 / Fold change vs veh, NRIP1 / RFU, PTTG1IP / Fold change vs veh, PTTG1IP / RFU, CAPN2 / Fold change vs veh, CAPN2 / RFU, MED14 / Fold change vs veh, MED14 / RFU, SNORA58 / Fold change vs veh, SNORA58 / RFU, C1orf63 / Fold change vs veh, C1orf63 / RFU, LRRFIP1 / Fold change vs veh, LRRFIP1 / RFU, NDUFAF7 / Fold change vs veh, NDUFAF7 / RFU, SLC12A2 / Fold change vs veh, SLC12A2 / RFU, IBTK / Fold change vs veh, IBTK / RFU, ESF1 / Fold change vs veh, ESF1 / Fold change vs veh, TMEM50B / RFU, TAOK1 / Fold change vs veh, TAOK1 / RFU, ACBD3 / Fold change vs veh, ACBD3 / RFU, TMA16 / Fold change vs veh, TMA16 / RFU, RWDD3 / Fold change vs veh, RWDD3 / RFU, BCAT1 / Fold change vs veh, BCAT1 / RFU, EDEM3 / Fold change vs veh, EDEM3 / RFU, TMEM33 / Fold change vs veh, TMEM33 / RFU, WDR75 / Fold change vs veh, WDR75 / RFU, AHCTF1 / Fold change vs veh, AHCTF1 / RFU, TFRC / Fold change vs veh, TFRC / RFU, ZDHHC17 / Fold change vs veh, ZDHHC17 / RFU, NOM1 / Fold change vs veh, NOM1 / RFU, ARL8B / Fold change vs veh, ARL8B / RFU, ZBTB11 / Fold change vs veh, ZBTB11 / RFU, TAMM41 / Fold change vs veh, TAMM41 / RFU, KIAA1704 /// LOC100996395 / Fold change vs veh, KIAA1704 /// LOC100996395 / RFU, ING1 / Fold change vs veh, ING1 / RFU, TRMT61B / Fold change vs veh, TRMT61B / RFU, FUBP3 / Fold change vs veh, FUBP3 / RFU, TP53 / Fold change vs veh, TP53 / RFU, TNKS2 / Fold change vs veh, TNKS2 / RFU, ZFP14 / Fold change vs veh, ZFP14 / RFU, ACTR2 / Fold change vs veh, ACTR2 / RFU, PPP3R1 / Fold change vs veh, PPP3R1 / RFU, PIK3R1 / Fold change vs veh, PIK3R1 / RFU, HNRNPA1 / Fold change vs veh, HNRNPA1 / RFU, RNF170 / Fold change vs veh, RNF170 / RFU, ZNF28 / Fold change vs veh, ZNF28 / RFU, RNGTT / Fold change vs veh, RNGTT / RFU, OGT / Fold change vs veh, OGT / RFU, BRD1 / Fold change vs veh, BRD1 / RFU, MARS / Fold change vs veh, MARS / RFU, ZNF655 / Fold change vs veh, ZNF655 / RFU, FAHD1 / Fold change vs veh, FAHD1 / RFU, BDP1 / Fold change vs veh, BDP1 / RFU, LRRCC1 / Fold change vs veh, LRRCC1 / RFU, ARID1A / Fold change vs veh, ARID1A / RFU, ZNF146 / Fold change vs veh, ZNF146 / RFU, ZNF330 / Fold change vs veh, ZNF330 / RFU, GPN3 / Fold change vs veh, GPN3 / RFU, C9orf123 / Fold change vs veh, C9orf123 / RFU, N4BP2L2 / Fold change vs veh, N4BP2L2 / RFU, ARFIP1 / Fold change vs veh, ARFIP1 / RFU, FAM179B / Fold change vs veh, FAM179B / RFU, BCL10 / Fold change vs veh, BCL10 / RFU, UHRF1BP1L / Fold change vs veh, UHRF1BP1L / RFU, BET1 / Fold change vs veh, BET1 / RFU, CNOT2 / Fold change vs veh, CNOT2 / RFU, ZNF268 / Fold change vs veh, ZNF268 / Fold change vs veh, ZNF507 / RFU, DGCR2 / Fold change vs veh, DGCR2 / RFU, WDSUB1 / Fold change vs veh, WDSUB1 / Fold change vs veh, HSP90B1 /// MIR3652 / RFU, ADSS / Fold change vs veh, ADSS / RFU, GK / Fold change vs veh, GK / RFU, ZNF148 / Fold change vs veh, ZNF148 / RFU, TAF9 / Fold change vs veh, TAF9 / RFU, SLC1A5 / Fold change vs veh, SLC1A5 / RFU, SLMO2 / Fold change vs veh, SLMO2 / RFU, ABCC4 / Fold change vs veh, ABCC4 / RFU, LOC101060439 /// RAP1B / Fold change vs veh, LOC101060439 /// RAP1B / RFU, RFX7 / Fold change vs veh, RFX7 / RFU, GTPBP10 / Fold change vs veh, GTPBP10 / RFU, CNEP1R1 / Fold change vs veh, CNEP1R1 / RFU, BIVM-ERCC5 /// ERCC5 / Fold change vs veh, BIVM-ERCC5 /// ERCC5 / RFU, ILF3 / Fold change vs veh, ILF3 / RFU 11762660_at / Fold change /veh 11762660_at / RFU VCAN (11757783_s_at) / Fold change /veh VCAN (11757783_s_at) / RFU DDX43 (11728927_at) / Fold change /veh DDX43 (11728927_at) / RFU KRT8 (11758188_x_at) / Fold change /veh KRT8 (11758188_x_at) / RFU NKD1 (11759106_at) / Fold change /veh NKD1 (11759106_at) / RFU SRD5A1 (11742802_a_at) / Fold change /veh SRD5A1 (11742802_a_at) / RFU TPSAB1 /// TPSB2 (11721975_s_at) / Fold change /veh TPSAB1 /// TPSB2 (11721975_s_at) / RFU GSTM3 (11746129_a_at) / Fold change /veh GSTM3 (11746129_a_at) / RFU IL23R (11737362_x_at) / Fold change /veh IL23R (11737362_x_at) / RFU TMEM51 (11727254_a_at) / Fold change /veh TMEM51 (11727254_a_at) / RFU PIWIL2 (11732686_x_at) / Fold change /veh PIWIL2 (11732686_x_at) / RFU ORM1 (11744905_x_at) / Fold change /veh ORM1 (11744905_x_at) / RFU CCDC152 (11743942_at) / Fold change /veh CCDC152 (11743942_at) / RFU ECM1 (11717891_a_at) / Fold change /veh ECM1 (11717891_a_at) / RFU IL23R (11748794_a_at) / Fold change /veh IL23R (11748794_a_at) / RFU TNFAIP8L3 (11732012_x_at) / Fold change /veh TNFAIP8L3 (11732012_x_at) / RFU MBOAT4 (11741988_at) / Fold change /veh MBOAT4 (11741988_at) / RFU 11764193_at / Fold change /veh 11764193_at / RFU TMEM53 (11763286_at) / Fold change /veh TMEM53 (11763286_at) / RFU MAGEB2 (11727129_at) / Fold change /veh MAGEB2 (11727129_at) / RFU TMEM200A (11744735_a_at) / Fold change /veh TMEM200A (11744735_a_at) / RFU CCDC152 (11751479_a_at) / Fold change /veh CCDC152 (11751479_a_at) / RFU FAM211A (11726209_a_at) / Fold change /veh FAM211A (11726209_a_at) / RFU RGS16 (11746705_a_at) / Fold change /veh RGS16 (11746705_a_at) / RFU VCAN (11755009_s_at) / Fold change /veh VCAN (11755009_s_at) / RFU RHOB (11743442_s_at) / Fold change /veh RHOB (11743442_s_at) / RFU RGS16 (11720943_a_at) / Fold change /veh RGS16 (11720943_a_at) / RFU RGS16 (11720944_at) / Fold change /veh RGS16 (11720944_at) / RFU, VPS4B / Fold change vs veh, VPS4B / RFU, CREB1 / Fold change vs veh, CREB1 / RFU, DNAJC13 / Fold change vs veh, DNAJC13 / RFU, GNAQ / Fold change vs veh, GNAQ / RFU, CDK5R1 / Fold change vs veh, CDK5R1 / RFU, ZRANB3 / Fold change vs veh, ZRANB3 / RFU, CUL4A / Fold change vs veh, CUL4A / RFU, CCNY / Fold change vs veh, CCNY / RFU, UFL1 / Fold change vs veh, UFL1 / RFU, COG3 / Fold change vs veh, COG3 / RFU, DIAPH2 / Fold change vs veh, DIAPH2 / RFU, SKA2 / Fold change vs veh, SKA2 / RFU, AFF3 / Fold change vs veh, AFF3 / RFU, LMF1 / Fold change vs veh, LMF1 / RFU, IPO11 / Fold change vs veh, IPO11 / RFU, DFFB / Fold change vs veh, DFFB / RFU, FOXP1 / Fold change vs veh, FOXP1 / RFU, CARD8 / Fold change vs veh, CARD8 / RFU, STRN3 / Fold change vs veh, STRN3 / RFU, ADK / Fold change vs veh, ADK / RFU, RASSF2 / Fold change vs veh, RASSF2 / RFU, WIPF1 / Fold change vs veh, WIPF1 / RFU, LARP1B / Fold change vs veh, LARP1B / RFU, RASA1 / Fold change vs veh, RASA1 / RFU, RB1 / Fold change vs veh, RB1 / RFU, PPFIA1 / Fold change vs veh, PPFIA1 / RFU, MAT2A / Fold change vs veh, MAT2A / RFU, CCT5 / Fold change vs veh, CCT5 / RFU, WDR92 / Fold change vs veh, WDR92 / RFU, CUX1 / Fold change vs veh, CUX1 / RFU, TTC7A / Fold change vs veh, TTC7A / RFU, TMEM135 / Fold change vs veh, TMEM135 / RFU, DEPTOR / Fold change vs veh, DEPTOR / RFU, CPM / Fold change vs veh, CPM / RFU, DNAJB6 / Fold change vs veh, DNAJB6 / RFU, CACNA2D3 / Fold change vs veh, CACNA2D3 / RFU, DTX4 / Fold change vs veh, DTX4 / RFU, TFCP2 / Fold change vs veh, TFCP2 / RFU, GMCL1 /// GMCL1P1 / Fold change vs veh, GMCL1 /// GMCL1P1 / RFU, AEBP2 / Fold change vs veh, AEBP2 / RFU, SNHG1 /// SNORD22 /// SNORD25 /// SNORD26 /// SNORD27 /// SNORD28 /// SNORD29 /// SNORD31 / Fold change vs veh, SNHG1 /// SNORD22 /// SNORD25 /// SNORD26 /// SNORD27 /// SNORD28 /// SNORD29 /// SNORD31 / Fold change (Aza/veh), C12orf56 (ProbeSet 11735607_a_at) / Fold change (ACY-1035/veh), C12orf56 (ProbeSet 11735607_a_at) / Fold change (Aza/veh), FGFR1OP (ProbeSet 11751329_s_at) / Fold change (ACY-1035/veh), FGFR1OP (ProbeSet 11751329_s_at) / Fold change (Aza/veh), VPS36 (ProbeSet 11739960_a_at) / Fold change (ACY-1035/veh), VPS36 (ProbeSet 11739960_a_at) / RFU SYPL1 (11715823_x_at) / Fold change /veh SYPL1 (11715823_x_at) / RFU IGFBP7 (11715501_s_at) / Fold change /veh IGFBP7 (11715501_s_at) / RFU REEP3 (11722064_at) / Fold change /veh REEP3 (11722064_at) / RFU IGLL1 (11728026_x_at) / Fold change /veh IGLL1 (11728026_x_at): dose or concentration left out as unconfirmed
Conditions: MV-4-11 cells, 48 hours

SMILES: Nc1ncn([C@@H]2O[C@H](CO)[C@@H](O)[C@H]2O)c(=O)n1 [azacitidine]
- RFU RGS16 (11720944_at): 63.78 RFU
